Patent US20040224981A1, “Antibacterial methods and compositions” (priority 2003, published 2004)
Like-named read-outs stand apart in the source and are kept apart here.

What was measured:
S. epidermidis = assay: Development of resistance following serial passage, S. epidermidis; type: cell-based; conditions: Staphylococcus epidermidis
Procedure: (§1) MRSi compound 5 (acetate salt), mupirocin and MRSi compound 5/mupirocin 1:1 combination were tested for development of resistance following serial passage using 19 isolates, including S. aureus, coagulase-negative staphylococci and S. pyogenes strains.

S. aureus [1] = assay: MIC against S. aureus strains and clinical isolates (broth microdilution); type: cell-based, Staphylococcus aureus; conditions: for MIC / MIC50 / MIC90: Staphylococcus aureus; for MIC50: read-out: MIC50; for MIC90: read-out: MIC90
In short: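 Broth microdilution per NCCLS in cation-supplemented Mueller-Hinton broth, final inoculum 5×10^5 CFU/ml from 0.5 McFarland suspensions diluted 1:10. Trays incubated aerobically overnight with quality control strains each run. Checkerboard FIC index: ≦0.5 synergy, >0.5 to 4 additive/indifferent, >4.0 antagonism.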

S. hemolyticus = assay: Development of resistance following serial passage, S. hemolyticus; type: cell-based
Procedure: as §1

S. pyogenes = assay: Development of resistance following serial passage, S. pyogenes; type: cell-based; conditions: Streptococcus pyogenes
Procedure: as §1

S. aureus [2] = assay: Development of resistance following serial passage, S. aureus; type: cell-based; conditions: Staphylococcus aureus
Procedure: as §1

[3] = all S. aureus isolates of Table 6
[4] = oxacillin-resistant S. aureus, Oxa-R (42)
[5] = oxacillin-susceptible S. aureus, Oxa-S (20)
[6] = recent clinical isolates of S. aureus, All (62)

Q: What does the source list for C=C(F)c1sc(CNCCCNc2cc(=O)c3ccccc3[nH]2)c(C)c1Br [MRSi Cmpd 5 acetate, N-(4-bromo-5-(1-fluorovinyl)-3-methylthiophen-2-ylmethyl)-N′-(1H-quinolin-4-one)propane-1,3-diamine]?
A: MIC (S. epidermidis; NRS8, read-out: Initial MIC, S. epidermidis NRS8 (LL-MupR)): 0.06 µg/mL; MIC (S. epidermidis; read-out: Final MIC after 20 passages, S. epidermidis 936528 (HL-MupR)): 0.5 µg/mL; MIC (S. epidermidis; read-out: Final MIC after 20 passages, S. epidermidis 936606 (Oxa-R)): 16 µg/mL; MIC (S. epidermidis; read-out: Initial MIC, S. epidermidis 936528 (HL-MupR)): 0.03 µg/mL; MIC (S. epidermidis; read-out: Initial MIC, S. epidermidis 936606 (Oxa-R)): 0.06 µg/mL; MIC (S. aureus [1]; ATCC29213, Table 4, S. aureus ATCC 29213, read-out: MIC): 0.06 µg/mL; MIC (S. aureus [1]; ATCC43300, Table 4, S. aureus ATCC 43300 (ORSA), read-out: MIC): 0.25 µg/mL; MIC (S. aureus [1]; NRS 1 / VISA, VISA, S. aureus NRS1 (Mu50), read-out: MIC): 0.015 µg/mL; MIC (S. aureus [1]; NRS 3 / VISA, VISA, S. aureus NRS3 (HIP5827), read-out: MIC): 0.008 µg/mL; MIC (S. aureus [1]; NRS 4 / VISA, VISA, S. aureus NRS4 (HIP5836), read-out: MIC): 0.008 µg/mL; MIC (S. aureus [1]; NRS 18 / VISA, VISA, S. aureus NRS18 (HIP06854), read-out: MIC): 0.03 µg/mL; MIC (S. aureus [1]; NRS 24 / VISA, VISA, S. aureus NRS24 (HIP09143), read-out: MIC): 0.06 µg/mL; MIC (S. aureus [1]; NRS 49 / VISA, VISA, S. aureus NRS49 (Korea), read-out: MIC): 0.008 µg/mL; MIC (S. aureus [1]; NRS54, Table 6, high-level mupirocin-resistant S. aureus NRS54, read-out: MIC): 0.06 µg/mL; MIC (S. aureus [1]; NRS 54 / VISA, VISA, S. aureus NRS54 (Brazil), read-out: MIC): 0.06 µg/mL; MIC (S. aureus [1]; NRS 56 / VISA, VISA, S. aureus NRS56 (Brazil), read-out: MIC): 0.008 µg/mL; MIC (S. aureus [1]; NRS107, Table 4, S. aureus NRS107 (mupA), read-out: MIC): ≤ 0.008 µg/mL; MIC (S. aureus [1]; NRS107, Table 6, high-level mupirocin-resistant S. aureus NRS107, read-out: MIC): ≤ 0.008 µg/mL; MIC (S. aureus [1]; NRS127, Table 6, low-level mupirocin-resistant S. aureus NRS127, read-out: MIC): 0.5 µg/mL; MIC (S. aureus [1]; Table 6, S. aureus (mupirocin-susceptible) 010-100, read-out: MIC): 0.03 µg/mL; MIC (S. aureus [1]; Table 6, S. aureus (mupirocin-susceptible) 087-2789, read-out: MIC): 0.06 µg/mL; MIC (S. aureus [1]; Table 6, S. aureus (mupirocin-susceptible) LZ9, read-out: MIC): 0.03 µg/mL; MIC (S. aureus [1]; Table 6, S. aureus (mupirocin-susceptible) LZ10, read-out: MIC): 0.03 µg/mL; MIC (S. aureus [1]; Table 6, high-level mupirocin-resistant S. aureus 010-420, read-out: MIC): 0.03 µg/mL; MIC (S. aureus [1]; Table 6, high-level mupirocin-resistant S. aureus 25-670, read-out: MIC): 0.03 µg/mL; MIC (S. aureus [1]; Table 6, high-level mupirocin-resistant S. aureus 87-2797, read-out: MIC): 0.03 µg/mL; MIC (S. aureus [1]; Table 6, high-level mupirocin-resistant S. aureus 1079101, read-out: MIC): 0.06 µg/mL; MIC (S. aureus [1]; Table 6, high-level mupirocin-resistant S. aureus LZ1, read-out: MIC): 0.015 µg/mL; MIC (S. aureus [1]; Table 6, high-level mupirocin-resistant S. aureus LZ6, read-out: MIC): 0.06 µg/mL; MIC (S. aureus [1]; Table 6, low-level mupirocin-resistant S. aureus 014-354, read-out: MIC): 0.015 µg/mL; MIC (S. aureus [1]; Table 6, low-level mupirocin-resistant S. aureus 031-1334, read-out: MIC): 0.015 µg/mL; MIC (S. aureus [1]; Table 6, low-level mupirocin-resistant S. aureus 036-1298, read-out: MIC): ≤ 0.008 µg/mL; MIC (S. aureus [1]; Table 6, low-level mupirocin-resistant S. aureus 1081148, read-out: MIC): 0.5 µg/mL; MIC (S. aureus [1]; Table 6, low-level mupirocin-resistant S. aureus LZ8, read-out: MIC): 0.03 µg/mL; MIC (S. aureus [1]; Table 6, low-level mupirocin-resistant S. aureus Miles Hall, read-out: MIC): ≤ 0.008 µg/mL; MIC (S. aureus [1]; VISA, all 8 vancomycin-intermediate S. aureus (VISA) isolates, read-out: MICs ranging): 0.008 to 0.25 µg/mL; MIC50 (S. aureus [1]; [3]): 0.03 µg/mL; MIC90 (S. aureus [1]; [3]): 0.5 µg/mL; MIC50 (S. aureus [1]; [4]): 0.03 µg/mL; MIC90 (S. aureus [1]; [4]): 0.5 µg/mL; MIC (S. aureus [1]; oxacillin-resistant S. aureus, Oxa-R (42), read-out: MIC Mode): 0.03 µg/mL; MIC50 (S. aureus [1]; [5]): 0.03 µg/mL; MIC90 (S. aureus [1]; [5]): 0.06 µg/mL; MIC (S. aureus [1]; oxacillin-susceptible S. aureus, Oxa-S (20), read-out: MIC Mode): 0.06 µg/mL; MIC50 (S. aureus [1]; [6]): 0.03 µg/mL; MIC90 (S. aureus [1]; [6]): 0.12 µg/mL; MIC (S. aureus [1]; recent clinical isolates of S. aureus, All (62), read-out: MIC Mode): 0.06 µg/mL; MIC Range (S. aureus [1]; [3]): ≦0.008-0.5 μg/mL; MIC Range (S. aureus [1]; [4]): ≦0.008 to 1 μg/mL; MIC Range (S. aureus [1]; [5]): ≦0.008 to 0.12 μg/mL; MIC Range (S. aureus [1]; [6]): ≦0.008 to 1 μg/mL; MIC (S. hemolyticus; NRS116, read-out: Final MIC after 20 passages): 16 µg/mL; MIC (S. hemolyticus; NRS116, read-out: Initial MIC): 0.12 µg/mL; MIC (S. pyogenes; ATCC19615, read-out: Final MIC after 20 passages): 1 µg/mL; MIC (S. pyogenes; read-out: Final MIC after 20 passages): 1 µg/mL; MIC (S. aureus [2]; ATCC29213, read-out: Final MIC after 20 passages, S. aureus ATCC 29213): 4 µg/mL; MIC (S. aureus [2]; ATCC29213, read-out: Initial MIC, S. aureus ATCC 29213): 0.06 µg/mL; MIC (S. aureus [2]; ATCC43300, read-out: Final MIC after 20 passages, S. aureus ATCC 43300 (ORSA)): 1 µg/mL; MIC (S. aureus [2]; ATCC43300, read-out: Initial MIC, S. aureus ATCC 43300 (ORSA)): 0.06 µg/mL; MIC (S. aureus [2]; NRS103, read-out: Final MIC after 20 passages, S. aureus NRS103 (ORSA)): 1 µg/mL; MIC (S. aureus [2]; NRS103, read-out: Initial MIC, S. aureus NRS103 (ORSA)): 0.12 µg/mL; MIC (S. aureus [2]; NRS107, read-out: Final MIC after 20 passages, S. aureus NRS107 (HL-MupR)): 0.5 µg/mL; MIC (S. aureus [2]; NRS107, read-out: Initial MIC, S. aureus NRS107 (HL-MupR)): 0.015 µg/mL; MIC (S. aureus [2]; read-out: Final MIC after 20 passages, S. aureus 10-420 (HL-MupR)): 8 µg/mL; MIC (S. aureus [2]; read-out: Final MIC after 20 passages, S. aureus 25-670 (HL-MupR)): 8 µg/mL; MIC (S. aureus [2]; read-out: Final MIC after 20 passages, S. aureus 31-1334 (LL-MupR)): 8 µg/mL; MIC (S. aureus [2]; read-out: Final MIC after 20 passages, S. aureus 87-2797 (HL-MupR)): 16 µg/mL; MIC (S. aureus [2]; read-out: Final MIC after 20 passages, S. aureus 1079077 (ORSA)): 16 µg/mL; MIC (S. aureus [2]; read-out: Final MIC after 20 passages, S. aureus 1079101 (HL-MupR)): 16 µg/mL; MIC (S. aureus [2]; read-out: Final MIC after 20 passages, S. aureus LZ6 (HL-MupR)): 2 µg/mL; MIC (S. aureus [2]; read-out: Initial MIC, S. aureus 1079077 (ORSA)): 0.25 µg/mL
